Experimental data published in US10703757B2, “Compounds and methods for CDK8 modulation and indications therefor” (Plexxikon Inc., priority 2016, dated 2020).

How the values were obtained:
[1] = test system: CDK8 (phosphorylation of STAT1 at serine 727 in A549 cells); assay: Cell based Phospho-STAT1 assay (IFNγ-stimulated A549 cells, AlphaLISA); details: Homo sapiens, A549, A549 cells, phospho-STAT1 after IFNγ stimulation
Procedure, shortened: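 A549 cells given serial compound dilutions for 1 h at 37 °C, then stimulated with IFNγ at 10 ng/mL final for 30 min. Lysate STAT1 Ser727 phosphorylation measured by AlphaLISA; % inhibition vs stimulated/unstimulated DMSO controls, IC50 by nonlinear regression.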

[2] = test system: CDK8 (TCF/LEF luciferase reporter in HCT116 cells); assay: Cell based TCF/LEF reporter assay (HCT116+TCF/LEF luciferase); details: Homo sapiens, HCT-116, 24 h
Procedure, shortened: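 HCT116 cells stably carrying a TCF/LEF-luciferase reporter (endogenous mutant β-catenin), seeded overnight, then exposed to serial compound dilutions for 24 h at 37 °C. Luminescence normalized to CellTiter-Fluor viability signal. % inhibition relative to DMSO and 10 uM CCT251545 controls, with IC50 from nonlinear regression.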

Structure (SMILES) | IC50 [1] [nM] | IC50 [2] [nM]
CC(C)(C#Cc1cccn2ncc(-c3ccc(-c4cnn(CC(F)F)c4)cc3)c12)C(N)=O [Compound P-0467, 4-(3-(4-(1-(2,2-difluoroethyl)-1H-pyrazol-4-yl)phenyl)pyrazolo[1,5-a]pyridin-4-yl)-2,2-dimethylbut-3-ynamide] | 0.1 to 100 | 0.1 to 100
Cn1cc(-c2ccc(-c3cnn4cccc(N5CCC(F)(C(N)=O)CC5)c34)cc2)cn1 [Compound P-0285, 4-fluoro-1-(3-(4-(1-methyl-1H-pyrazol-4-yl)phenyl)pyrazolo[1,5-a]pyridin-4-yl)piperidine-4-carboxamide] | 100 to 1000 | 100 to 1000
Cn1cc(-c2ccc(-c3cnn4cccc(N5CCC(F)(C#N)CC5)c34)cc2)cn1 [Compound P-0293, 4-fluoro-1-(3-(4-(1-methyl-1H-pyrazol-4-yl)phenyl)pyrazolo[1,5-a]pyridin-4-yl)piperidine-4-carbonitrile] | 0.1 to 100 | 1000 to 10000
COCCn1cc(-c2ccc(-c3cnn4cccc(C#CC(C)(C)C(N)=O)c34)cc2)cn1 [Compound P-0469, 4-(3-(4-(1-(2-methoxyethyl)-1H-pyrazol-4-yl)phenyl)pyrazolo[1,5-a]pyridin-4-yl)-2,2-dimethylbut-3-ynamide] | 0.1 to 100 | 0.1 to 100
Cc1ccc2cc(-c3cnc4[nH]ccc4c3C#CC(C)(C)C(N)=O)ccc2n1 [Compound P-0131, 2,2-dimethyl-4-(5-(2-methylquinolin-6-yl)-1H-pyrrolo[2,3-b]pyridin-4-yl)but-3-ynamide] | 100 to 1000 | 1000 to 10000
CCn1cc(-c2ccc(-c3cnc4[nH]ccc4c3N3CCC(C#N)CC3)cc2)cn1 [Compound P-0173, 1-(5-(4-(1-ethyl-1H-pyrazol-4-yl)phenyl)-1H-pyrrolo[2,3-b]pyridin-4-yl)piperidine-4-carbonitrile] | 0.1 to 100 | 0.1 to 100
CC(C)(C#Cc1cccn2ncc(-c3ccc(-c4cnn(CCF)c4)cc3)c12)C(N)=O [Compound P-0466, 4-(3-(4-(1-(2-fluoroethyl)-1H-pyrazol-4-yl)phenyl)pyrazolo[1,5-a]pyridin-4-yl)-2,2-dimethylbut-3-ynamide] | 0.1 to 100 | 0.1 to 100
CC(C)(O)C#Cc1cccn2ncc(-c3ccc(-c4cn[nH]c4)cc3)c12 [Compound P-0229, 4-(3-(4-(1H-pyrazol-4-yl)phenyl)pyrazolo[1,5-a]pyridin-4-yl)-2-methylbut-3-yn-2-ol] | 0.1 to 100 | 0.1 to 100
Cn1cc(-c2ccc(-c3cnn4ccnc(C#CC(C)(C)C(N)=O)c34)cc2)cn1 [Compound P-0003, 2,2-dimethyl-4-(3-(4-(1-methyl-1H-pyrazol-4-yl)phenyl)pyrazolo[1,5-a]pyrazin-4-yl)but-3-ynamide] | 0.1 to 100 | 0.1 to 100
Cn1cc(-c2ccc(-c3cnc4cccc(N5CCC6(CC5)C(=O)Nc5ccccc56)n34)cc2)cn1 [Compound P-0454, 1′-(3-(4-(1-methyl-1H-pyrazol-4-yl)phenyl)imidazo[1,2-a]pyridin-5-yl)spiro[indoline-3,4′-piperidin]-2-one] | 0.1 to 100 | 0.1 to 100
CNC(=O)c1ccc2cc(-c3cnc4[nH]ccc4c3N3CCC(F)(C#N)CC3)ccc2c1 [Compound P-0269, 6-(4-(4-cyano-4-fluoropiperidin-1-yl)-1H-pyrrolo[2,3-b]pyridin-5-yl)-N-methyl-2-naphthamide] | 100 to 1000 | 100 to 1000
CC(C)(C#Cc1cccn2ncc(-c3ccc(-c4cnn(CCC#N)c4)cc3)c12)C(N)=O [Compound P-0005, 4-(3-(4-(1-(2-cyanoethyl)-1H-pyrazol-4-yl)phenyl)pyrazolo[1,5-a]pyridin-4-yl)-2,2-dimethylbut-3-ynamide] | 0.1 to 100 | 0.1 to 100
CC(C)(C#Cc1cccn2ncc(-c3ccc(-c4cnn(CC5COC5)c4)cc3)c12)C(N)=O [Compound P-0470, 2,2-dimethyl-4-(3-(4-(1-(oxetan-3-ylmethyl)-1H-pyrazol-4-yl)phenyl)pyrazolo[1,5-a]pyridin-4-yl)but-3-ynamid] | 0.1 to 100 | 0.1 to 100
Cn1cc(-c2ccc(-c3cnc4[nH]ccc4c3N3CCC4(CCNC4=O)CC3)cc2)cn1 [Compound P-0271, 8-(5-(4-(1-methyl-1H-pyrazol-4-yl)phenyl)-1H-pyrrolo[2,3-b]pyridin-4-yl)-2,8-diazaspiro[4.5]decan-1-one] | 100 to 1000 | 100 to 1000

Other lines, results leading:

IC50 [1] [nM] | IC50 [2] [nM] | Structure (SMILES)
0.1 to 100 | 0.1 to 100 | N#CC1CC=C(c2nccn3ncc(-c4ccc(OCCOC5CCS(=O)(=O)CC5)cc4)c23)CC1 (centres unmarked) [Compound P-0057, 4-(3-(4-(2-((1,1-dioxidotetrahydro-2H-thiopyran-4-yl)oxy)ethoxy)phenyl)pyrazolo[1,5-a]pyrazin-4-yl)cyclohex-3-ene-1-carbonitrile]
100 to 1000 | 100 to 1000 | Cn1cc(-c2ccc(-c3cnn4cccc(N5CC6CCC(C5)C6C#N)c34)cc2)cn1 (centres unmarked) [Compound P-0159, 3-(3-(4-(1-methyl-1H-pyrazol-4-yl)phenyl)pyrazolo[1,5-a]pyridin-4-yl)-3-azabicyclo[3.2.1]octane-8-carbonitrile]
1000 to 10000 | 1000 to 10000 | N#CC1CCN(c2cccn3ncc(-c4cccc(OCC(F)(F)F)c4)c23)CC1 [Compound P-0251, 1-(3-(3-(2,2,2-trifluoro-ethoxy)phenyl)pyrazolo[1,5-a]pyridin-4-yl)piperidine-4-carbonitrile]
0.1 to 100 | 0.1 to 100 | COc1ccc2cc(-c3cnn4cccc(C5=CCC(C#N)CC5)c34)ccc2n1 (centres unmarked) [Compound P-0242, 4-(3-(2-methoxyquinolin-6-yl)pyrazolo[1,5-a]pyridin-4-yl)cyclohex-3-ene-1-carbonitrile]
0.1 to 100 | 0.1 to 100 | Cn1cc(-c2ccc(-c3cnc4[nH]ccc4c3C3=CCC(C#N)CC3)cc2)cn1 (centres unmarked) [Compound P-0359, 4-(5-(4-(1-methyl-1H-pyrazol-4-yl)phenyl)-1H-pyrrolo[2,3-b]pyridin-4-yl)cyclohex-3-ene-1-carbonitrile]
0.1 to 100 | 0.1 to 100 | N#CC1CC=C(c2nccn3ncc(-c4ccc(-c5cn[nH]c5)cc4)c23)CC1 (centres unmarked) [Compound P-0008, 4-(3-(4-(1H-pyrazol-4-yl)phenyl)pyrazolo[1,5-a]pyrazin-4-yl)cyclohex-3-ene-1-carbonitrile]
100 to 1000 | 100 to 1000 | N#CC1CC=C(c2nccn3ncc(-c4ccc(OCc5ccccc5)c(F)c4)c23)CC1 (centres unmarked) [Compound P-0039, 4-(3-(4-(benzyloxy)-3-fluorophenyl)pyrazolo[1,5-a]pyrazin-4-yl)cyclohex-3-ene-1-carbonitrile]
1000 to 10000 | 1000 to 10000 | N#CC1CCN(c2cccn3ncc(-c4ccc(OC5CCCCC5)cc4)c23)CC1 [Compound P-0265, 1-(3-(4-(cyclo-hexyloxy)phenyl)pyrazolo[1,5-a]pyridin-4-yl)piperidine-4-carbonitrile]
0.1 to 100 | 0.1 to 100 | Cn1cc(-c2ccc(-c3cnn4ccnc(C5=CCC(C#N)CC5)c34)cc2)cn1 (centres unmarked) [Compound P-0323, 4-(3-(4-(1-methyl-1H-pyrazol-4-yl)phenyl)pyrazolo[1,5-a]pyrazin-4-yl)cyclohex-3-ene-1-carbonitrile]
0.1 to 100 | 0.1 to 100 | COC(=O)c1ccc(-c2cnn3cccc(C4=CCC(C#N)CC4)c23)cc1C (centres unmarked) [Compound P-0123, methyl 4-(4-(4-cyanocyclohex-1-en-1-yl)pyrazolo[1,5-a]pyridin-3-yl)-2-methylbenzoate]
100 to 1000 | 1000 to 10000 | N#CC1CCC(c2cccn3ncc(-c4ccc5cc(C(=O)O)ccc5c4)c23)CC1 (centres unmarked) [Compound P-0193, 6-(4-(4-cyanocyclohexyl)pyrazolo[1,5-a]pyridin-3-yl)-2-naphthoic acid]
0.1 to 100 | 0.1 to 100 | N#CC1CCC(c2cccn3ncc(-c4ccc(OCC5CCCCO5)cc4)c23)CC1 (centres unmarked) [Compound P-0144, 4-(3-(4-((tetrahydro-2H-pyran-2-yl)methoxy)phenyl)pyrazolo[1,5-a]pyridin-4-yl)cyclohexane-1-carbonitrile]
0.1 to 100 | 100 to 1000 | N#CC1CC=C(c2nccn3ncc(-c4cnn(-c5ccc(F)cc5)c4)c23)CC1 (centres unmarked) [Compound P-0103, 4-(3-(1-(4-fluorophenyl)-1H-pyrazol-4-yl)pyrazolo[1,5-a]pyrazin-4-yl)cyclohex-3-ene-1-carbonitrile]
0.1 to 100 | 0.1 to 100 | Cn1cc(-c2ccc(-c3cnn4ccnc(C#CC(C)(C)O)c34)cc2)cn1 [Compound P-0274, 2-methyl-4-(3-(4-(1-methyl-1H-pyrazol-4-yl)phenyl)pyrazolo[1,5-a]pyrazin-4-yl)but-3-yn-2-ol]
0.1 to 100 | 0.1 to 100 | CC(C)(O)Cn1cc(-c2ccc(-c3cnn4ccnc(C5=CCC(C#N)CC5)c34)cc2)cn1 (centres unmarked) [Compound P-0162, 4-(3-(4-(1-(2-hydroxy-2-methylpropyl)-1H-pyrazol-4-yl)phenyl)pyrazolo[1,5-a]pyrazin-4-yl)cyclohex-3-ene-1-carbonitrile]
0.1 to 100 | 0.1 to 100 | Cn1ncc2cc(-c3cnn4cccc(C5CCC(C#N)CC5)c34)ccc21 (centres unmarked) [Compound P-0337, 4-(3-(1-methyl-1H-indazol-5-yl)pyrazolo[1,5-a]pyridin-4-yl)cyclohexane-1-carbonitrile]
0.1 to 100 | 0.1 to 100 | Cc1nc2ccc(-c3cnc4[nH]ccc4c3C3=CCC(C#N)CC3)cc2s1 (centres unmarked) [Compound P-0164, 4-(5-(2-methylbenzo[d]thiazol-6-yl)-1H-pyrrolo[2,3-b]pyridin-4-yl)cyclohex-3-ene-1-carbonitrile]
